Read-outs that look alike come from different tables or passages of the source. Residues, ends and D or L forms follow the SMILES beside them. *: point of attachment. Cbz = O=C(OCc1ccccc1)*
Assays:
U2OS cells = assay: Clonogenic assay, U2OS cells with mild hyperthermia; assay type: cell-based, human; settings: 41° C., 100 μM NU1025 (FIG. 3A)
Description: (§1) Embryonic stem (ES) cells were cultured on gelatin-coated dishes in a 1:1 mixture of Dulbecco's modified Eagle's medium (DMEM) and buffalo rat liver conditioned medium, supplemented with 10% FBS (Hyclone), 0.1 mM nonessential amino acids (Biowhittaker), […] β-mercaptoethanol (Sigma) and 500 U ml-1 leukemia inhibitory factor. Other cells were cultured in following media, supplemented with 10% (v/v) FCS and streptomycin/penicillin: 1:1 mixture of DMEM and Ham's F10 (HeLa), DMEM (human melanoma [BLM], osteosarcoma [U2OS], cervix carcinoma cells), L-15 (human squamous lung carcinoma [SW-1573]), Eagle's MEM (mouse osteosarcoma [MOS], rat rhabdomyosarcoma [R1]). Cells were maintained at 37° C. in an atmosphere containing 5% (HeLa, BLM), 10% (U2OS, cervix carcinoma cells), 2% (R1) or 0% (SW-1573) CO2. […]
(§2) In experiments involving NU1025 or irradiation, cells were trypsinized, counted and plated at appropriate concentrations into 60- or 35 mm dishes. […] Cells were then incubated for 7-14 days, fixed, stained and colonies exceeding 50 cells were counted. […] In experiments involving a combination of NU1025 and 17-DMAG, cells were first treated as indicated and subsequently trypsinized, counted and plated at various concentrations. […]

SW-1573 cells = assay: Clonogenic assay, SW-1573 cells; assay type: cell-based, human
Description: as §1, §2

R1 cells = assay: Clonogenic assay, R1 cells with mild hyperthermia; assay type: cell-based, rat; settings: R1, 41° C.; for clonogenic survival: combination of 100 μM NU1025 and 100 nM 17-DMAG (FIG. 4B)
Description: (§3) Embryonic stem (ES) cells were cultured on gelatin-coated dishes in a 1:1 mixture of Dulbecco's modified Eagle's medium (DMEM) and buffalo rat liver conditioned medium, supplemented with 10% FBS (Hyclone), 0.1 mM nonessential amino acids (Biowhittaker), […] β-mercaptoethanol (Sigma) and 500 U ml-1 leukemia inhibitory factor. Other cells were cultured in following media, supplemented with 10% (v/v) FCS and streptomycin/penicillin: 1:1 mixture of DMEM and Ham's F10 (HeLa), DMEM (human melanoma [BLM], osteosarcoma [U2OS], cervix carcinoma cells), L-15 (human squamous lung carcinoma [SW-1573]), Eagle's MEM (mouse osteosarcoma [MOS], rat rhabdomyosarcoma [R1]). Cells were maintained at 37° C. in an atmosphere containing 5% (HeLa, BLM), 10% (U2OS, cervix carcinoma cells), 2% (R1) or 0% (SW-1573) CO2. Patients with cervical cancer expressed written informed consent to provide fresh biopsies during an investigation under general anesthesia, and use the tumor specimens for this study. This study was approved by the medical ethical committee of the AMC (MEC #03/137). The biopsies were minced using scalpel, then incubated in Liberase Blendzyme enzyme cocktail (Roche) in DMEM for 60 min at 37° C. and plated on glass coverslips in fresh culture medium. All incubations at elevated temperature were performed in a heated waterbath or in a water-filled cuvette placed in an incubator set to required temperature, in an atmosphere containing appropriate CO2 concentration.
The following inhibitors were used at the indicated final concentrations: 17-DMAG, 100 nM (Sigma-Aldrich), NU1025, 100 μM (Sigma-Aldrich), MG-132, 10 μM (Calbiochem).
as §2

PARP = settings: cited from earlier work
MOS cells = assay: Clonogenic assay, MOS cells; assay type: cell-based, mouse
Description: as §1, §2

BRCA2 [1] = assay: Immunoblotting of BRCA2 in BLM cells under mild hyperthermia; assay type: cell-based, human; settings: hyperthermia plus 100 nM 17-DMAG vs heat without 17-DMAG or 17-DMAG at 37° C. (FIG. 4A)
Description: as §3, with “The biopsies were minced using scalpel, then incubated in Liberase Blendzyme enzyme cocktail (Roche) in DMEM for 60 min at 37° C. and plated on glass coverslips in fresh culture medium. All incubations at elevated temperature were performed in a heated waterbath or in a water-filled cuvette placed in an incubator set to required temperature, in an atmosphere containing appropriate CO2 concentration.” left out
(§4) Cells were lysed in SDS sample buffer (2% SDS, 10% glycerol, 60 mM Tris-HCl pH 6.8). […] Protein concentration was determined by the Lowry protein assay, extracts were supplemented with 0.5% […] and 0.02% bromophenol blue. […]

[2] = test system: HR-mediated gene targeting; assay: Gene targeting efficiency assay in ES cells; assay type: cell-based; settings: mouse ES cells, 41° C. plus 100 nM 17-DMAG vs heat without 17-DMAG or 17-DMAG at 37° C. (FIG. 1C)
Description: as §3, with “All incubations at elevated temperature were performed in a heated waterbath or in a water-filled cuvette placed in an incubator set to required temperature, in an atmosphere containing appropriate CO2 concentration.” left out

BRCA2 [3] = assay: Immunoblotting of BRCA2 in HeLa cells under mild hyperthermia; assay type: cell-based; settings: exposed to 41° C. in presence of 10 μM MG132 (FIG. 2C)
Description: as §3, with “The biopsies were minced using scalpel, then incubated in Liberase Blendzyme enzyme cocktail (Roche) in DMEM for 60 min at 37° C. and plated on glass coverslips in fresh culture medium. All incubations at elevated temperature were performed in a heated waterbath or in a water-filled cuvette placed in an incubator set to required temperature, in an atmosphere containing appropriate CO2 concentration.” left out
as §4

recombinant PARP-1 = recombinant PARP-1 (Homo sapiens, UniProt P09874); settings: recombinant PARP-1, cell-free assay; read-out: competitive inhibition Ki; cited from earlier work
PARP-2 = PARP-2 (Homo sapiens, UniProt Q9UGN5); settings: cited from earlier work
[4] = PARP inhibitor potency as listed, isoform not stated

PARP-2, sequence (Q9UGN5 whole entry, species assumed, canonical isoform): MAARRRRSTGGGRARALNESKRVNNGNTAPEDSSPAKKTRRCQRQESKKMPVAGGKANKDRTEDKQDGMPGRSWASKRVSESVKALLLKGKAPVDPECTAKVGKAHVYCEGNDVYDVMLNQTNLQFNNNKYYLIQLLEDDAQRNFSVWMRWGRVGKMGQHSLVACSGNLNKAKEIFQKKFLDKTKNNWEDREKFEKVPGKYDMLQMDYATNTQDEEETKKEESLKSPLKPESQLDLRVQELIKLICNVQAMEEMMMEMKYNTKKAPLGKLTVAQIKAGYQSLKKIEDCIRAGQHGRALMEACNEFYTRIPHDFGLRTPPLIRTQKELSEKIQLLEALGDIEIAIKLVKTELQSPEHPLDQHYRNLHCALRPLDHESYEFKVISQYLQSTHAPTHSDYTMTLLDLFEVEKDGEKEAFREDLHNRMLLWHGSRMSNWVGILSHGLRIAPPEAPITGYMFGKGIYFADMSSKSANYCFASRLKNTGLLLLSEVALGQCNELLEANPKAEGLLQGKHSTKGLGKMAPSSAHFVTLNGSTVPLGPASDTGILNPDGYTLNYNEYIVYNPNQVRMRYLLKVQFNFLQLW
recombinant PARP-1, sequence (P09874 whole entry, species assumed): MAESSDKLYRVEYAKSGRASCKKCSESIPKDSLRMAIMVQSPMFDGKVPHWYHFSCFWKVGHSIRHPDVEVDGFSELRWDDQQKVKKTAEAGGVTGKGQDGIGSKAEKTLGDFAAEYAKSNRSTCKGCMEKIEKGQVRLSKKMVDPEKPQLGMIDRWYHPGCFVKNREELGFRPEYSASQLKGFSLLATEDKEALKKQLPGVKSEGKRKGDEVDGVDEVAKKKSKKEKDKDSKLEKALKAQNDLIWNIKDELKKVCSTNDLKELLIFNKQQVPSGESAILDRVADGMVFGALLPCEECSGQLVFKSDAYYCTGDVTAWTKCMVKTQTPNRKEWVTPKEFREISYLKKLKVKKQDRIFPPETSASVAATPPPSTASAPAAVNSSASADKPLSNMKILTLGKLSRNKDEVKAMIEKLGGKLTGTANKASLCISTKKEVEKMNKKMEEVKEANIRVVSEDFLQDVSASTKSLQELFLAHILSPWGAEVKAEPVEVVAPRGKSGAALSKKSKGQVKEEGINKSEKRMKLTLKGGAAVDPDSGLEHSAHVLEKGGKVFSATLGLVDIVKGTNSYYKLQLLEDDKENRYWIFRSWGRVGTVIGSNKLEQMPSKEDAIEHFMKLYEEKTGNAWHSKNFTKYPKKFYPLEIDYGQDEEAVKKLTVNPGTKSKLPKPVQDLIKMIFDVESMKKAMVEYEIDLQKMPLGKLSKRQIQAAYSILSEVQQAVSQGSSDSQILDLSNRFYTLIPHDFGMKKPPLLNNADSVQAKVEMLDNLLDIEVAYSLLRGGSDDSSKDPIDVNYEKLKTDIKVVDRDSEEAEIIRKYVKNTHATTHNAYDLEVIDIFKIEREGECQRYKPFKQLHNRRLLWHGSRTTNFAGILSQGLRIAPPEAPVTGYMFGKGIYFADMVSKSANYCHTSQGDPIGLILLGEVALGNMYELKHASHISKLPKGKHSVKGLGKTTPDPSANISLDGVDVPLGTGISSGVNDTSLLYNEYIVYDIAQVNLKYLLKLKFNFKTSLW

Q: Which “clonogenic survival compared to hyperthermia alone” value (U2OS cells) does the source give for `Cc1nc2c(O)cccc2c(=O)[nH]1` [NU1025, 8-hydroxy-2-methylquinazoline-4-one] here?
A: decrease in clonogenic survival

Q: What about the “sensitivity to inhibitor alone” value (SW-1573 cells; SW-1573, NU1025 alone, data not shown) of the same compound?
A: insensitive

Q: And the “survival of hyperthermia-treated cells” value (SW-1573 cells; SW-1573, hyperthermia plus NU1025, data not shown)?
A: did not reduce survival

Q: And the “clonogenic survival compared to hyperthermia alone” value (R1 cells; 100 μM NU1025 (FIG. 3B))?
A: decrease in clonogenic survival

Q: And the clonogenic survival (R1 cells)?
A: dramatically reduced

Q: And the IC50 (PARP)?
A: 400 nM

Q: What about the “sensitivity to inhibitor alone” value (MOS cells; NU1025 alone, data not shown) of the same compound?
A: insensitive

Q: What about the “survival of hyperthermia-treated cells” value (MOS cells; hyperthermia plus NU1025, data not shown) of the same compound?
A: did not reduce survival

Q: For `Oc1cccc2c(O)nccc12` [IQD, 1,5-dihydroxyisoquinoline], which IC50 (PARP; [4]) is on record?
A: 390 nM

Q: For `Nc1ncnc2c1ncn2C1OC(C(=O)N2CCN(CC(=O)Nc3cccc4c3CNC4=O)CC2)C(O)C1O` [EB-47, 1-piperazineacetamide,4-[1-(6-amino-9H-purin-9-yl)-1-deoxy-6-D-ribofuranuron]-N-(2,3-dihydro-1H-isoindol-4-yl)-1-one], which IC50 (PARP; [4]) is on record?
A: 45 nM

Q: With `CO[C@H]1/C=C\C=C(/C)C(=O)NC2=CC(=O)C(NCCN(C)C)=C(C[C@@H](C)C[C@H](OC)[C@H](O)[C@@H](C)/C=C(\C)[C@@H]1OC(N)=O)C2=O` [17-DMAG, 17-dimethylaminoethylamino-17-demethoxy-geldanamycin] as the compound, how does the clonogenic survival (R1 cells) read?
A: dramatically reduced

Q: And the “levels of BRCA2 protein” value (BRCA2 [1])?
A: further reduced

Q: And the “efficiency of HR-mediated gene targeting” value [2]?
A: further reduced

Q: For `Nc1ccc2c3c(cccc13)C(=O)NC2=O` [4-ANI, 4-amino-1,8-naphthalimide], which IC50 (PARP) is on record?
A: 180 nM

Q: For `CC(C)C[C@@H](C=O)NC(=O)[C@H](CC(C)C)NC(=O)[C@H](CC(C)C)NC(=O)OCc1ccccc1` [MG132] (Cbz-Leu-Leu-Leu-aldehyde), which “BRCA2 levels on hyperthermia” value (BRCA2 [3]) is on record?
A: no decrease of BRCA2 levels

Q: With `CN(C)c1ccc(O)c2c1C[C@H]1C[C@H]3[C@H](N(C)C)C(O)=C(C(N)=O)C(=O)[C@@]3(O)C(O)=C1C2=O` [minocycline] as the compound, how does the Ki (recombinant PARP-1) read?
A: 13.8 nM

Q: With `O=C1N=C2SCC=C2c2ccccc21` [TIQ-A, thieno[2,3-c]isoquinolin-5-one] as the compound, how does the IC50 (PARP; [4]) read?
A: 450 nM

Q: Which IC50 (PARP-2) does the source give for `Cc1nc2c(c(=O)[nH]1)CSCC2` [DR2313, 2-methyl-3,5,7,8-tetrahydrothiopyrano[4,3-d]pyrimidine-4-one] here?
A: 240 nM

Q: For `NC(=O)c1cccc2ncc(-c3ccc(Cl)cc3)nc12` [3-(4-chlorophenyl)quinoxaline-5-carboxamide], which IC50 (PARP-2) is on record?
A: 7 nM

Q: Which IC50 (PARP; [4]) does the source give for `O=C1NCCc2c(OCCCCN3CCCCC3)cccc21` [DPQ, 3,4-dihydro-5[4-(1-piperindinyl)butoxy]-1(2H)-isoquinoline] here?
A: 40 nM
